What was measured:
Sprague-Dawley rats [1] = experiment: Spontaneous sleep apnea (apnea index) by plethysmography in freely moving rats; assay type: in vivo; details: rat; for breaths with long duration in typical 6-hour recordings (FIG. 1A): vs vehicle recording; for time dependence of apnea suppression during the 6-hour recording period: NREM and REM sleep; for degree of apnea suppression, Δ^9THC compared with oleamide: highest dose (10.0 mg/kg)
Protocol: These recoding and data analysis methods have been described in detail elsewhere [Carley and Radulovacki (Chest., 115: 1397 (1999)].
Adult, male Sprague-Dawley rats (Sasco-King, Wilmington, Mass.; 11 per test group; 300 g) were maintained on a 12-hour light (08:00-20:00 hour)/12-hour dark (20:00-08:00 hour) cycle for one week, housed in individual cages and given ad libitum access to food and water. Following the one week of acclimatization, animals were subjected to the following surgical procedures.
(§1) Δ^9THC (dronabinol, Roxane Laboratories, Columbus, Ohio) was dissolved in DMSO: oleamide (ICN Biomedicals, Aurora, Ohio) was suspended in peanut oil with sonication for 20 minutes; and serotonin was dissolved in saline. The study was a fully nested, repeated measures crossover design, such that each animal received each of 12 intraperitoneal injections (1 ml/kg) exactly one time: vehicle alone (saline, DMSO, or peanut oil); Δ^9THC alone (0.1, 1.0, or 10.0 mg/kg); oleamide alone (0.1, 1.0, or 10.0 mg/kg); serotonin alone (0.79 mg/kg); or combination injection (0.1 mg/kg Δ^9THC followed, after 15 minutes, by 0.79 mg/kg serotonin or 0.1 mg/kg oleamide followed by 0.79 mg/kg serotonin). Each injection was made 15 minutes prior to polygraphic recording for 6 hours (10:00-16:00). Successive recordings for an individual animal were separated by at least three days and the treatments were given in random order.
(§2) Respiration was recorded by placing each animal, unrestrained, inside a single chamber plethysmograph (PLYUN1R/U; Buxco Electronics, Sharon, Conn.; dimension 6 in.×10 in.×6 in.) ventilated with a bias flow of fresh room air at a rate of 2 L/min. A cable plugged onto the animal's connector and passed through a sealed port was used to carry the bioelectrical activity from the head implant.
Sleep and waking states were assessed using the biparietal EEG and nuchal EMG signals on 10-second epochs as described by Bennington et al. [Sleep 17:28-36 (1994)]. This software discriminated wakefulness (W) as a high frequency low amplitude EEG with a concomitant high EMG tone, NREM sleep by increased spindle and […] activity together with decreased EMG tone, and REM sleep by a low ratio of a delta to theta activity and an absence of EMG tone. Sleep efficiency was measured as the percentage of total recorded epochs staged as NREM or REM sleep.
(§3) An accepted physiological animal model [rat; Monti, et al., Pharamcol. Biochem. Behav., 51:125-131; (1995)] of sleep apnea was used to assess the effects of a cannabinoid receptor agonist activity and/or agents having cannabimimetic activity. More specifically, sleep apneas, defined as cessation of respiratory effort for at least 2.5 seconds, were scored for each recording session and were associated with the stage in which they occurred: NREM or REM sleep. The duration requirement of 2.5 seconds represented at least 2 “missed” breaths, which is therefore analogous to a 10 second apnea duration requirement in humans, which also reflects 2-3 missed breaths. The events detected represent central apneas because decreased ventilation associated with obstructed or occluded airways would generate an increased plethysmographic signal, rather than a pause. An apnea index (AI), defined as apneas per hour in a stage was separately determined for NREM and REM sleep. The effects of sleep stage (NREM vs. REM) and injection (control vs. test compounds) were tested using ANOVA with repeated measures. Multiple comparisons were controlled using Fisher's protected least significant difference (PLSD). In addition, the timing and volume of each breath were scored by automatic analysis (Experimenters' Workbench; Datawave Technologies, Longmont, Colo.). For each animal the mean respiratory rate (RR) and minute ventilation (MV) was computed for W throughout the 6 hour control recording and used as a baseline to normalize respiration during sleep and during test compound administration in that animal. […]

Sprague-Dawley rats [2] = experiment: Respiratory rate, minute ventilation and tidal volume by plethysmography; assay type: in vivo; details: rat; for average respiratory rate (RR) / respiratory minute ventilation: intraperitoneal; for respiratory minute ventilation: compared with the effects on RR
Protocol: as §1, §2
The bias flow of room air (2 l/min) was more than one order of magnitude greater than the alveolar ventilation of the rat, ensuring that no rebreathing occurred. Thermal fluctuations associated with tidal respiration induced changes in plethysmograph pressure proportional to tidal volume. Plethysmograph pressure was monitored using a Validyne DP45-14 differential pressure transducer (±2 cm H20). Prior to each experimental study, the plethysmograph was calibrated for tidal volume using the method described by Epstein et al. (J. Appl. Physiol., 49, 1107 (1980)). An adaptive threshold algorithm (Datawave Systems, Longmont, Colo.) was used to measure the duration and tidal amplitude of each breath in each recording. From these values, instantaneous respiratory rate (RR) and minute ventilation (MV) were computed on a breath by breath basis. Respiratory variability was assessed by calculating the standard deviations of RR and MV for each 10 second recording epoch. These standard deviations were then averaged separately for each sleep/wake state.
as §3

Sprague-Dawley rats [3] = experiment: Sleep/wake architecture by EEG/EMG recording; assay type: in vivo; details: rat, intraperitoneal; for sleep/wake architecture: 6 hour recording
Protocol: Acclimatized animals were anesthetized for the implantation of cortical electrodes for electroencephalogram (EEG) recording and neck muscle electrodes for electromyogram (EMG) recording using a mixture of ketamine (Vedco, Inc., St. Joseph, Mo.; 80 mg/ml) and xylazine (Vedco, Inc., St. Joseph, Mo.; 5 mg/ml; 4:1, volume/volume) at a volume of 1 ml/kg body weight. The surface of the skull was exposed surgically and cleaned with a 20% solution of hydrogen peroxide followed by, a solution of 95% isopropyl alcohol. Next, a dental preparation of sodium fluoride: (Flura-GEL®, Saslow Dental, Mt. Prospect, Ill.) was applied to harden the skull above the parietal cortex and allowed to remain in place for 5 minutes. The fluoride mixture was then removed from the skull above the parietal cortex. The EEG electrodes consisting of four stainless steel machine screws, having leads attached thereto, were threaded into the skull to rest on the dura over the parietal cortex. A thin layer of Justi® resin cement (Saslow Dental, Mt. Prospect, Ill.) was applied to cover the screw heads (of screws implanted in the skull) and surrounding skull to further promote the adhesion of the implant. EMG electrodes consisting of two ball-shaped wires were inserted into the bilateral neck musculature. All leads (i.e., EEG and EMG leads) were soldered to a miniature connector (39F1401, Newark Electronics, Chicago, Ill.). Lastly, the entire assembly was fixed to the skull with dental cement.
as §1
Sleep and waking states were assessed using the biparietal EEG and nuchal EMG signals on 10-second epochs as described by Bennington et al. [Sleep 17:28-36 (1994)]. […] Sleep efficiency was measured as the percentage of total recorded epochs staged as NREM or REM sleep.

CB1 receptors = CB1 receptors (Homo sapiens, UniProt P21554); details: cited from earlier work
CB2 receptors = CB2 receptors (Homo sapiens, UniProt P34972); details: cited from earlier work
Sprague-Dawley rats [4] = experiment: Serotonin-induced apnea during REM sleep; assay type: in vivo; details: rat; for serotonin-induced increase in REM sleep apnea: pretreatment with 0.1 mg/kg intraperitoneal 15 minutes before 0.79 mg/kg serotonin; for frequency of apnea during REM sleep: intraperitoneal, serotonin 0.79 mg/kg alone vs saline
Protocol: as §1, §2
An accepted physiological animal model [rat; Monti, et al., Pharamcol. Biochem. Behav., 51:125-131; (1995)] of sleep apnea was used to assess the effects of a cannabinoid receptor agonist activity and/or agents having cannabimimetic activity. More specifically, sleep apneas, defined as cessation of respiratory effort for at least 2.5 seconds, were scored for each recording session and were associated with the stage in which they occurred: NREM or REM sleep. The duration requirement of 2.5 seconds represented at least 2 “missed” breaths, which is therefore analogous to a 10 second apnea duration requirement in humans, which also reflects 2-3 missed breaths. The events detected represent central apneas because decreased ventilation associated with obstructed or occluded airways would generate an increased plethysmographic signal, rather than a pause. An apnea index (AI), defined as apneas per hour in a stage was separately determined for NREM and REM sleep. The effects of sleep stage (NREM vs. REM) and injection (control vs. test compounds) were tested using ANOVA with repeated measures. Multiple comparisons were controlled using Fisher's protected least significant difference (PLSD). In addition, the timing and volume of each breath were scored by automatic analysis (Experimenters' Workbench; Datawave Technologies, Longmont, Colo.). […]

[5] = intraperitoneal, 0.1 mg/kg, administered alone
[6] = intraperitoneal, 1.0 mg/kg, vs vehicle
[7] = intraperitoneal, 10.0 mg/kg, vs vehicle
[8] = 0.1-10.0 mg/kg, sleep/wake states

Chain of CB2 receptors (P34972 whole entry): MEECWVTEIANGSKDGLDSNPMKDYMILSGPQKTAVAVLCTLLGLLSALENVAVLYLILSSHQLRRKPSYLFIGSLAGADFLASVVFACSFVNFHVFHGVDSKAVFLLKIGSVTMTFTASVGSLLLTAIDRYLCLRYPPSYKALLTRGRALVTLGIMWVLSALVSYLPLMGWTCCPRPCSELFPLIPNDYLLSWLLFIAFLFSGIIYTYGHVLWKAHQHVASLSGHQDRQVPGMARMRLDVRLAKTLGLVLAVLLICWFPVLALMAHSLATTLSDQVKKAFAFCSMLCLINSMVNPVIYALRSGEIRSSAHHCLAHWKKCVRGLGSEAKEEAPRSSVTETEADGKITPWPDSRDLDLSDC
Chain of CB1 receptors (P21554 whole entry): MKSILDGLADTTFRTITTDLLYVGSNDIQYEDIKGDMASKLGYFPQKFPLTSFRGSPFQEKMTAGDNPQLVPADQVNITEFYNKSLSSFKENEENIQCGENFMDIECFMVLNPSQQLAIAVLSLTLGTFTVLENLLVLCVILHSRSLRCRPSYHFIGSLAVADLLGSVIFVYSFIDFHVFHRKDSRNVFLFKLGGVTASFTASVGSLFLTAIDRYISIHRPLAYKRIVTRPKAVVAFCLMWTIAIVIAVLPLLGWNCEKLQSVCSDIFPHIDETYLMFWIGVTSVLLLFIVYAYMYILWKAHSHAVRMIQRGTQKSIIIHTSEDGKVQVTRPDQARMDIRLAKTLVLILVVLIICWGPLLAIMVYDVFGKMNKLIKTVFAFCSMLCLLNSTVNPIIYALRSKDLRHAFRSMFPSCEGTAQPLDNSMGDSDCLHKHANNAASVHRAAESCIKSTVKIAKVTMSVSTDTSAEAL

Structure (SMILES) | breaths with long duration in typical 6-hour recordings (FIG. 1A) (Sprague-Dawley rats [1]; 10.0 mg/kg) | apnea expression during REM sleep (Sprague-Dawley rats [1]; [5]) | frequency of apneas during NREM sleep (Sprague-Dawley rats [1]; [6]) | apnea expression during REM sleep (Sprague-Dawley rats [1]; [7]) | frequency of apneas during NREM sleep (Sprague-Dawley rats [1]; [7]) | time dependence of apnea suppression during the 6-hour recording period (Sprague-Dawley rats [1]; intraperitoneal) | degree of apnea suppression, Δ^9THC compared with oleamide (Sprague-Dawley rats [1]; intraperitoneal) | average respiratory rate (RR) (Sprague-Dawley rats [2]; 10.0 mg/kg, 6-hour recording) | average respiratory rate (RR) (Sprague-Dawley rats [2]; [8]) | respiratory minute ventilation (Sprague-Dawley rats [2]; 0.1-10.0 mg/kg) | serotonin-induced increase in REM sleep apnea (Sprague-Dawley rats [4]) | also measured
CCCCCCCC/C=C\CCCCCCCC(N)=O [oleamide] | clear reduction in breaths with durations exceeding 1.5 seconds | neither Δ^9THC nor oleamide had any effect | suppressed apnea expression | suppressed apnea expression | suppressed apnea expression | persisted throughout the 6 hour recording interval | equivalent | tended to increase | dose dependent elevation of RR | Equivalent effects | completely blocked | frequency of apneas during NREM sleep (Sprague-Dawley rats [1]; intraperitoneal, 0.1 mg/kg, vs vehicle): suppressed apnea expression; apnea expression during REM sleep (Sprague-Dawley rats [1]; [6]): suppressed apnea expression; respiratory rate (RR), statistical significance of elevation (Sprague-Dawley rats [2]; 10.0 mg/kg vs. vehicle, p=0.03): achieved statistical significance only during wakefulness; sleep/wake architecture (Sprague-Dawley rats [3]; 0.1 mg/kg): increased REM sleep with decreased wakefulness; sleep/wake architecture (Sprague-Dawley rats [3]; 1.0 mg/kg): increased REM sleep with decreased wakefulness; sleep/wake architecture (Sprague-Dawley rats [3]; 10.0 mg/kg): increased NREM sleep with decreased REM sleep; binding affinity to CB1 receptors (CB1 receptors): does not appear to bind with high affinity; binding affinity to CB2 receptors (CB2 receptors): does not appear to bind with high affinity
NCCc1c[nH]c2ccc(O)cc12 [serotonin] |  |  |  |  |  |  |  |  |  |  |  | frequency of apnea during REM sleep (Sprague-Dawley rats [4]): significant increase in the frequency of apnea; frequency of apnea during REM sleep (Sprague-Dawley rats [4]; listed as Serotonin): significant increase in REM sleep-apnea
CCCCCc1cc(O)c2c(c1)OC(C)(C)[C@@H]1CCC(C)=C[C@@H]21 [Δ^9THC, 9-tetrahydrocannabinol] | clear reduction in breaths with durations exceeding 1.5 seconds | neither Δ^9THC nor oleamide had any effect | reduced the frequency of apneas | significant decrease | reduced the frequency of apneas | not time-dependent | equivalent | significantly reduced in all sleep/wake states | dose dependent reduction in RR | Equivalent effects | completely blocked | spontaneous apnea during all sleep stages (Sprague-Dawley rats [1]; intraperitoneal, 0.1-10.0 mg/kg, 6-hour recording, vs vehicle): strongly suppressed spontaneous apnea; change in REM sleep expression (Sprague-Dawley rats [3]; highest dose tested (10.0 mg/kg), p=0.0002): −66%
